In brackets after ≈: the same amount, converted by molar mass. Read-outs that look alike come from different tables or passages of the source.
Columns and labels:
MRSA 33591 = assay: MIC, MRSA 33591; format: cell-based, Staphylococcus aureus; details: Staphylococcus aureus, MRSA; Table 5
Description: (§1) Susceptibility tests can be used to quantitatively measure the in vitro activity of an antimicrobial agent against a given bacterial isolate. Compounds are tested for in vitro antibacterial activity by a micro-dilution method. Minimal Inhibitory Concentration (MIC) is determined in 96 well microtiter plates utilizing the appropriate broth medium for the observed bacterial isolates. Antimicrobial agents are serially diluted (2-fold) in DMSO to produce a concentration range from about 64 μg/ml to about 0.03 μg/ml. The diluted compounds (2 μl/well) are then transferred into sterile, uninoculated medium (0.2 mL) by use of a 96 fixed tip-pipetting station. The inoculum for each bacterial strain is standardized to approximately 5×10^5 CFU/mL by optical comparison to a 0.5 McFarland turbidity standard. The plates are inoculated with 10 μl/well of adjusted bacterial inoculum. The 96 well plates are covered and incubated at 35±2° C. for 24 hours in ambient air environment. Following incubation, plate wells are visually examined by Optical Density measurement for the presence of growth (turbidity). The lowest concentration of an antimicrobial agent at which no visible growth occurs is defined as the MIC.
(§2) All in vitro testing follows the guidelines described in the Approved Standards M7-A7 protocol, published by the Clinical Laboratory Standards Institute (CLSI).

MRSA 7662 [1] = assay: MIC, MRSA 7662; format: cell-based; details: Staphylococcus aureus
Description: as §1, §2

H influenzae 33929 = assay: MIC, H influenzae 33929; format: cell-based, Haemophilus influenzae; details: Haemophilus influenzae, 33929; Table 5
Description: as §1, §2

H influenzae 49247 = assay: MIC, H influenzae 49247; format: cell-based, Haemophilus influenzae; details: Haemophilus influenzae, 49247; Table 5
Description: as §1, §2

S. aureus Smith [2] = assay: MIC, S. aureus Smith; format: cell-based, Staphylococcus aureus
Description: as §1, §2

S. aureus Smith [3] = assay: Systemic mouse protection model (MPT), S. aureus Smith; format: in vivo; details: Staphylococcus aureus
S. aureus 7662 = assay: Systemic mouse protection model, S. aureus 7662; format: in vivo; details: Staphylococcus aureus, S. aureus 7662, iv
MRSA 7662 [4] = assay: Mouse skin and soft tissue infection, MRSA 7662; format: in vivo; details: Staphylococcus aureus
[5] = Tissue accumulation at the site of infection (plasma, skin, skin abscess); details: for AUC(0-inf) / AUC(0-t) / Cmax / Kp / Tmax / half-life: mouse, po, 50 mg/kg
S. pneumoniae 7701 [6] = assay: MIC, S. pneumoniae 7701; format: cell-based
Description: as §1, §2

H. influenzae 1435 [7] = assay: MIC, H. influenzae 1435; format: cell-based, Haemophilus influenzae; parameters: unit not given beside the values
Description: as §1, §2

H. influenzae S1280 [8] = assay: MIC, H. influenzae S1280; format: cell-based, Haemophilus influenzae; parameters: unit not given beside the values
Description: as §1, §2

H. influenzae 3643 [9] = assay: MIC, H. influenzae 3643; format: cell-based, Haemophilus influenzae; parameters: unit not given beside the values
Description: as §1, §2

S. pneumoniae 7701 [10] = assay: Mouse protection test model (MPT), S. pneumoniae 7701; format: in vivo; details: Streptococcus pneumoniae
H. influenzae 1435 [11] = assay: Rat lung infection model (RLI), H. influenzae 1435; format: in vivo; details: Haemophilus influenzae, read-out: ED50 (2Log Red for RLI)
H. influenzae S1280 [12] = assay: Rat lung infection model (RLI), H. influenzae S1280; format: in vivo; details: Haemophilus influenzae, read-out: ED50 (2Log Red for RLI)
H. influenzae 3643 [13] = assay: Rat lung infection model (RLI), H. influenzae 3643; format: in vivo; details: Haemophilus influenzae, read-out: ED50 (2Log Red for RLI)
[14] = Oral pharmacokinetics in mice; format: in vivo; details: 15 mg/kg
[15] = Oral pharmacokinetics in rat; format: in vivo; details: 10 mg/kg
[16] = Oral pharmacokinetics in dog; format: in vivo; details: for Cmax / Tmax / half-life / AUC(0-t): in vivo; for Cmax / Tmax / half-life / AUC(0-t) / CLF / F / Vd: oral, Dog; for AUC(0-t): read-out: AUC0-24
[17] = Oral pharmacokinetics in rat plasma and lung tissue; format: in vivo; details: 10 mg/kg PO; for AUC(0-t): read-out: AUC0-24; for Kp: lung/plasma, po, 10 mg/kg

Q: Which MIC (MRSA 33591) does the source give for `CCC(=O)/N=C1\[C@H](C)C[C@@]2(C)OC/C(=N/OCc3ccc(-c4nc(N)cs4)cn3)CO[C@H]([C@H]1C)[C@](C)(O)[C@@H](CC)OC(=O)[C@@](C)(F)C(=O)[C@H](C)[C@H]2O[C@@H]1O[C@H](C)C[C@H](N(C)C)[C@H]1O` [Compound 1] here?
A: Its MIC is 2 µg/mL (≈ 2.21 µM).

Q: What about the MIC (MRSA 7662 [1]; S. aureus 7662, table of systemic mouse protection model, read-out: MIC) of the same compound?
A: Its MIC is 1000 µg/mL (≈ 1100 µM).

Q: What about the MIC (MRSA 7662 [1]; Table 5, read-out: MIC MRSA 7662) of the same compound?
A: Its MIC is 1 µg/mL (≈ 1.1 µM).

Q: What about the MIC (H influenzae 33929) of the same compound?
A: Its MIC is 4 µg/mL (≈ 4.42 µM).

Q: And the MIC (H influenzae 49247)?
A: Its MIC is 4 µg/mL (≈ 4.42 µM).

Q: And the MIC (S. aureus Smith [2]; Staphylococcus aureus, table of systemic mouse protection model, read-out: MIC)?
A: Its MIC is 130 µg/mL (≈ 144 µM).

Q: And the ED50 (S. aureus Smith [3]; systemic mouse protection model, iv)?
A: Its ED50 is 4.8 mg/kg.

Q: And the ED50 (S. aureus Smith [3]; systemic mouse protection model, po)?
A: The ED50 was 13.3 mg/kg.

Q: What about the ED50 (S. aureus 7662) of the same compound?
A: Its ED50 is 3.6 mg/kg.

Q: And the ED50 (MRSA 7662 [4]; MRSA 7662, iv)?
A: Its ED50 is 12 mg/kg.

Q: What about the ED50 (MRSA 7662 [4]; MRSA 7662, po) of the same compound?
A: Its ED50 is 29 mg/kg.

Q: And the “Accumulation at the site of infection” value ([5]; infected skin tissue of mice)?
A: Its value is “highly accumulated at the site of infections in infected skin tissue of mice”.

Q: And the AUC(0-inf) ([5]; infected skin abscess)?
A: Its AUC(0-inf) is 617000 ng·h/mL.

Q: What about the AUC(0-t) ([5]; infected skin abscess) of the same compound?
A: The AUC(0-t) was 257000 ng·h/mL.

Q: What about the Cmax ([5]; infected skin abscess) of the same compound?
A: The Cmax was 9030 ng/mL.

Q: And the Kp ([5]; infected skin abscess)?
A: Its Kp is 25.2.

Q: What about the Tmax ([5]; infected skin abscess) of the same compound?
A: The Tmax was 3 h.

Q: And the half-life ([5]; infected skin abscess)?
A: Its half-life is 52.4 h.

Q: And the AUC(0-inf) ([5]; plasma)?
A: The AUC(0-inf) was 24500 ng·h/mL.

Q: And the AUC(0-t) ([5]; plasma)?
A: The AUC(0-t) was 24400 ng·h/mL.

Q: And the Cmax ([5]; plasma)?
A: Its Cmax is 5120 ng/mL.

Q: And the Tmax ([5]; plasma)?
A: The Tmax was 0.5 h.

Q: What about the half-life ([5]; plasma) of the same compound?
A: The half-life was 5.2 h.

Q: And the AUC(0-inf) ([5]; uninfected skin)?
A: The AUC(0-inf) was 66600 ng·h/mL.

Q: What about the AUC(0-t) ([5]; uninfected skin) of the same compound?
A: The AUC(0-t) was 54600 ng·h/mL.

Q: What about the Cmax ([5]; uninfected skin) of the same compound?
A: The Cmax was 3800 ng/mL.

Q: What about the Kp ([5]; uninfected skin) of the same compound?
A: Its Kp is 2.72.

Q: And the Tmax ([5]; uninfected skin)?
A: Its Tmax is 3 h.

Q: What about the half-life ([5]; uninfected skin) of the same compound?
A: The half-life was 17.9 h.

Q: Which MIC (H influenzae 33929) does the source give for `CC[C@H]1OC(=O)[C@H](C)C(=O)[C@H](C)[C@@H](O[C@@H]2O[C@H](C)C[C@H](N(C)C)[C@H]2O)[C@@]2(C)C[C@@H](C)/C(=N\C(C)=O)[C@H](C)[C@@H](OC/C(=N\OCc3ccc(-c4ccno4)nc3)CO2)[C@]1(C)O` [Compound 4] here?
A: The MIC was 4 µg/mL (≈ 4.75 µM).

Q: And the MIC (H influenzae 49247)?
A: Its MIC is 4 µg/mL (≈ 4.75 µM).

Q: What about the MIC (S. aureus Smith [2]; table of animal models of infection) of the same compound?
A: Its MIC is 0.25.

Q: What about the ED50 (S. aureus Smith [3]; MPT) of the same compound?
A: Its ED50 is 9 mg/kg.

Q: And the MIC (S. pneumoniae 7701 [6])?
A: Its MIC is “<=0.06”.

Q: And the MIC (H. influenzae 1435 [7])?
A: The MIC was 4.

Q: What about the MIC (H. influenzae S1280 [8]) of the same compound?
A: The MIC was 8.

Q: What about the MIC (H. influenzae 3643 [9]) of the same compound?
A: The MIC was 16.

Q: What about the ED50 (S. pneumoniae 7701 [10]) of the same compound?
A: Its ED50 is 9 mg/kg.

Q: What about the ED50 (H. influenzae 1435 [11]) of the same compound?
A: The ED50 was 33 mg/kg.

Q: What about the ED50 (H. influenzae S1280 [12]) of the same compound?
A: The ED50 was 46 mg/kg.

Q: And the ED50 (H. influenzae 3643 [13])?
A: Its ED50 is 64 mg/kg.

Q: And the CLF [14]?
A: Its CLF is 26.7 mL/min/kg.

Q: What about the F [14] of the same compound?
A: Its F is 100%.

Q: And the Vd [14]?
A: Its Vd is 6.8 L/kg.

Q: What about the Cmax ([14]; mouse, in vivo) of the same compound?
A: Its Cmax is 2430 ng/mL.

Q: And the Tmax ([14]; mouse, in vivo)?
A: Its Tmax is 0.5 h.

Q: What about the half-life ([14]; mouse, in vivo) of the same compound?
A: Its half-life is 2.4 h.

Q: What about the AUC(0-t) ([14]; mouse, in vivo, read-out: AUC0-24) of the same compound?
A: The AUC(0-t) was 9800 ng·h/mL.

Q: And the CLF [15]?
A: The CLF was 10.7 mL/min/kg.

Q: And the F [15]?
A: Its F is 87%.

Q: And the Vd [15]?
A: Its Vd is 1.97 L/kg.

Q: And the Cmax ([15]; plasma)?
A: The Cmax was 2540 ng/mL.

Q: And the Tmax ([15]; plasma)?
A: The Tmax was 1.7 h.

Q: And the half-life ([15]; plasma)?
A: Its half-life is 2.1 h.

Q: And the AUC(0-t) ([15]; plasma, read-out: AUC0-24)?
A: The AUC(0-t) was 13900 ng·h/mL.

Q: And the “Animal pharmacokinetics properties in dogs” value ([16]; dogs)?
A: The value was “low clearance, excellent oral absorption (bioavailability) and AUC”.

Q: And the Cmax ([16]; 5 mg/kg)?
A: The Cmax was 2470 ng/mL.

Q: And the Tmax ([16]; 5 mg/kg)?
A: The Tmax was 1.3 h.

Q: What about the half-life ([16]; 5 mg/kg) of the same compound?
A: The half-life was 7.3 h.

Q: What about the AUC(0-t) ([16]; 5 mg/kg) of the same compound?
A: The AUC(0-t) was 32600 ng·h/mL.

Q: And the Cmax ([16]; 10 mg/kg)?
A: Its Cmax is 5040 ng/mL.

Q: And the Tmax ([16]; 10 mg/kg)?
A: Its Tmax is 6 h.

Q: And the half-life ([16]; 10 mg/kg)?
A: Its half-life is 15.8 h.

Q: What about the AUC(0-t) ([16]; 10 mg/kg) of the same compound?
A: The AUC(0-t) was 84400 ng·h/mL.

Q: And the CLF ([16]; 5 mg/kg)?
A: The CLF was 1.67 mL/min/kg.

Q: And the F ([16]; 5 mg/kg)?
A: Its F is 71%.

Q: What about the Vd ([16]; 5 mg/kg) of the same compound?
A: The Vd was 1.0 L/kg.

Q: What about the CLF ([16]; 10 mg/kg) of the same compound?
A: The CLF was 1.67 mL/min/kg.

Q: What about the F ([16]; 10 mg/kg) of the same compound?
A: The F was 100%.

Q: And the Vd ([16]; 10 mg/kg)?
A: Its Vd is 1.54 L/kg.

Q: And the Cmax ([17]; Lung)?
A: Its Cmax is 19000 ± 80 ng/mL.

Q: What about the Tmax ([17]; Lung) of the same compound?
A: The Tmax was 2.33 ± 1.15 h.

Q: And the half-life ([17]; Lung)?
A: Its half-life is 2.51 ± 0.1 h.

Q: And the AUC(0-t) ([17]; Lung)?
A: Its AUC(0-t) is 110000 ± 12900 ng·h/mL.

Q: What about the Cmax ([17]; Plasma) of the same compound?
A: Its Cmax is 2540 ± 80 ng/mL.

Q: What about the Tmax ([17]; Plasma) of the same compound?
A: Its Tmax is 1.67 ± 1.15 h.

Q: What about the half-life ([17]; Plasma) of the same compound?
A: Its half-life is 2.06 ± 0.45 h.

Q: And the AUC(0-t) ([17]; Plasma)?
A: Its AUC(0-t) is 13900 ± 2810 ng·h/mL.

Q: What about the Kp ([17]; read-out: AUC Lung/Plasma) of the same compound?
A: Its Kp is 8 ± 0.9.

Q: And the Kp ([17]; read-out: Cmax Lung/plasma)?
A: The Kp was 7.5 ± 1.
